# Measured values as given in patent publication US4634704A, “Anti-allergic five membered heterocyclic ring containing N-(bicyclic heterocycyl)-4-piperidinamines” (Janssen Pharmaceutica, N.V., priority 1984, dated 1987).
# Counter-ions that a name gives are not always drawn.
# System: compound 48/80-induced lethality
# Assay: Protection of rats from compound 48/80-induced lethality
# Assay type: in vivo, rat (male, inbred Wistar strain)
# Conditions: Rattus norvegicus, 4 h, read-out: compound 48/80 lethality test in rats-ED50, dose protecting 50% of animals; subcutaneous or oral, 1 h before compound 48/80 0.5 mg/kg i.v.; survival after 4 h
# Method: Protection of rats from compound 48/80-induced lethality.
# The protection from compound 48/80-induced lethal circulatory collapse appears to be a simple way of evaluating quantitatively the antihistaminic activity of test compounds. Male rats of an inbred Wistar strain, weighing 240-260 g were used in the experiment. After overnight starvation the rats were transferred to conditioned laboratories (temp.=21±1° C., relative humidity=65±5%).
# The rats were treated subcutaneously or orally with a test compound or with the solvent (NaCl solution, 0.9%). […] Survival after 4 hours is therefore considered to be a safe criterion of a protective effect of drug administration.
# The ED50 -values of the compounds of formula (I) are listed in the first column of table 1. Said ED50 -values are the values in mg/kg body weight at which the tested compounds protect 50% of the tested animals against compound 48/80-induced lethality.
row,Compound,ED50 [mg/kg]
1,"Fc1ccc(Cn2c(NC3CCN(Cc4nc5ccccc5[nH]4)CC3)nc3ccccc32)cc1.O [Compound 2, N-[1-(1H-benzimidazol-2-ylmethyl)-4-piperidinyl]-1-(4fluorophenylmethyl)-1H-benzimidazol-2-amine monohydrate]",0.63
2,"Cc1nc[nH]c1CN1CCC(Nc2nc3ccccc3n2Cc2ccc(F)cc2)CC1 [Compound 7, 1-(4-fluorophenylmethyl)-N-[1-[(4-methyl-1H-imidazol-5-yl)methyl]-4-piperidinyl]-1H-benzimidazol-2-amine]",0.02
3,"CCn1nnnc1OCCN1CCC(Nc2nc3ccccc3n2Cc2ccc(F)cc2)CC1 [Compound 10, N-[1-[2-[(1-ethyl-1H-tetrazol-5-yl)oxy]ethyl]-4-piperidinyl]-1-[(4-fluorophenyl)methyl]-1H-benzimidazol-2-amine (E)-2-butenedioate (2:5)]",0.04
4,Cn1cnc([N+](=O)[O-])c1NCCN1CCC(Nc2nc3ccccc3n2Cc2ccc(F)cc2)CC1 [Compound 12],0.31
5,"Cc1nnc(NCCN2CCC(Nc3nc4ccccc4n3Cc3ccc(F)cc3)CC2)s1 [Compound 15, 1-[(4-fluorophenyl)methyl]-N-[1-[2-[(5-methyl-1,3,4-thiadiazol-2-yl)amino]ethyl]-4-piperidinyl]-1H-benzimidazol-2-amine]",0.04
6,Fc1ccc(Cn2c(NC3CCN(CCNc4nccs4)CC3)nc3cccnc32)cc1 [Compound 17],0.02
7,Nc1nnc(NCCN2CCC(Nc3nc4ccccc4n3Cc3ccc(F)cc3)CC2)s1 [Compound 18],0.02
8,Fc1ccc(Cn2c(NC3CCN(CCNc4nc5ccccc5s4)CC3)nc3ccccc32)cc1 [Compound 19],0.31
9,Fc1ccc(Cn2c(NC3CCN(CCCNc4nccs4)CC3)nc3ccccc32)cc1 [Compound 20],0.16
10,Fc1ccc(Cn2c(NC3CCN(CCCCCNc4nccs4)CC3)nc3ccccc32)cc1 [Compound 21],0.16
11,Fc1ccc(Cn2c(NC3CCN(CCNc4nccs4)CC3)nc3ccncc32)cc1 [Compound 23],0.08
12,COc1ccc(Cn2c(NC3CCN(CCNc4nccs4)CC3)nc3ccccc32)cc1 [Compound 24],0.31
13,Clc1ccc(Cn2c(NC3CCN(CCNc4nccs4)CC3)nc3ccccc32)cc1 [Compound 25],0.31
14,CN(c1nc2ccccc2n1Cc1ccc(F)cc1)C1CCN(CCNc2nccs2)CC1 [Compound 26],0.02
15,c1ccc(Cn2c(NC3CCN(CCNc4nccs4)CC3)nc3ccccc32)nc1 [Compound 27],0.04
16,c1csc(Cn2c(NC3CCN(CCNc4nccs4)CC3)nc3ccccc32)c1 [Compound 28],0.08
17,Cc1ccccc1Cn1c(NC2CCN(CCNc3nccs3)CC2)nc2ccccc21 [Compound 29],0.63
18,O=[N+]([O-])c1cnc(NCCN2CCC(Nc3nc4ccccc4n3Cc3ccc(F)cc3)CC2)s1 [Compound 32],0.63
19,CCc1nnc(NCCN2CCC(Nc3nc4ccccc4n3Cc3ccc(F)cc3)CC2)s1 [Compound 33],0.16
20,Nc1ccc(Cn2c(NC3CCN(CCNc4nccs4)CC3)nc3ccccc32)cc1 [Compound 35],0.31

row,Compound,ED50 [mg/kg]
1,O=[N+]([O-])c1ccc(Cn2c(NC3CCN(CCNc4nccs4)CC3)nc3ccccc32)cc1 [Compound 43],0.31
2,"CN(CCN1CCC(Nc2nc3ccccc3n2Cc2ccc(F)cc2)CC1)c1nccs1 [Compound 50, 1-[(4-fluorophenyl)methyl]-N-[1-[2-[methyl(2-thiazolyl)amino]ethyl]-4-piperidinyl]-1H-benzimidazol-2-amine]",0.08
3,Fc1ccc(Cn2c(NC3CCN(CCCCNc4nccs4)CC3)nc3ccccc32)cc1 [Compound 53],0.31
4,c1coc(Cn2c(NC3CCN(CCNc4nccs4)CC3)nc3cccnc32)c1 [Compound 56],0.01
5,c1ccc(Cn2c(NC3CCN(CCNc4nccs4)CC3)nc3cccnc32)nc1 [Compound 57],0.005
6,"N=C(NCCN1CCC(Nc2nc3ccccc3n2Cc2ccc(F)cc2)CC1)Nc1nc2ccccc2[nH]1 [Compound 66, N-(1H-benzimidazol-2-yl)-N'-[2-[4-[[1-[(4-fluorophenyl)methyl]-1H-benzimidazol-2-yl]amino]-1-piperidinyl]ethyl]guanidine trihydrochloride.dihydrate]",0.31
7,"Fc1ccc(Cn2c(NC3CCN(CCOc4nc5ccccc5s4)CC3)nc3ccccc32)cc1 [Compound 67, N-[1-[2-(2-benzothiazolyloxy)ethyl]-4-piperidinyl]-1-[(4-fluorophenyl)methyl]-1H-benzimidazol-2-amine]",0.63
8,"Fc1ccc(Cn2c(NC3CCN(CCSc4nc5ccccc5o4)CC3)nc3ccccc32)cc1 [Compound 73, N-[1-[2-[(2-benzoxazolyl)thio]ethyl]-4-piperidinyl]-1-[(4-fluorophenyl)methyl]-1H-benzimidazol-2-amine]",0.63
9,"CCn1nnnc1SCCN1CCC(Nc2nc3ccccc3n2Cc2ccc(F)cc2)CC1 [Compound 74, N-[1-[2-[(1-ethyl-1H-tetrazol-5-yl)thio]ethyl]-4-piperidinyl]-1-[(4-fluorophenyl)methyl]-1H-benzimidazol-2-amine]",0.08
10,"O=C(NCCN1CCC(Nc2nc3ccccc3n2Cc2ccc(F)cc2)CC1)c1cc2ccccc2[nH]1 [Compound 76, N-[2-[4-[[1-[(4-fluorophenyl)methyl]-1H-benzimidazol-2-yl]amino]-1-piperidinyl]ethyl]-1H-indole-2-carboxamide]",0.16
11,"O=C(Cc1c[nH]c2ccccc12)NCCN1CCC(Nc2nc3ccccc3n2Cc2ccc(F)cc2)CC1 [Compound 77, N-[2-[4-[[1-[(4-fluorophenyl)methyl]-1H-benzimidazol-2-yl]amino]-1-piperidinyl]ethyl]-1H-indol-3-acetamide]",0.16
12,"Cn1c(C(=O)NCCN2CCC(Nc3nc4ccccc4n3Cc3ccc(F)cc3)CC2)cc2ccccc21 [Compound 78, N-[2-[4-[[1-[(4-fluorophenyl)methyl]-1H-benzimidazol-2-yl]amino]-1piperidinyl]ethyl]-1-methyl-1H-indole-2-carboxamide]",0.16
13,"Fc1ccc(Cn2ccnc2NCCN2CCC(Nc3nc4ccccc4n3Cc3ccc(F)cc3)CC2)cc1 [Compound 82, 1-[(4-fluorophenyl)methyl]-N-[1-[2-[[1-[(4-fluorophenyl)methyl]-1H-imidazol-2-yl]amino]ethyl]-4-piperidinyl]-1H-benzimidazol-2-amine cyclohexanesulfamate(1:3).dihydrate]",0.16
14,"Nc1nc(CCN2CCC(Nc3nc4ccccc4n3Cc3ccc(F)cc3)CC2)cs1 [Compound 91, N-[1-[2-(2-amino-4-thiazolyl)ethyl]-4-piperidinyl]-1-[(4-fluorophenyl)methyl]-1H-benzimidazol-2-amine]",0.08
15,"Fc1ccc(Cn2c(NC3CCN(CCc4csc(-c5ccccc5)n4)CC3)nc3ccccc32)cc1 [Compound 92, 1-[(4-fluorophenyl)methyl]-N-[1-[2-(2-phenyl-4-thiazolylethyl]-4-piperidinyl]-1H-benzimidazol-2-aminedihydrochloride monohydrate]",0.63
16,"CCOC(=O)N(CCN1CCC(Nc2nc3ccccc3n2Cc2ccc(F)cc2)CC1)c1nccs1 [Compound 101, ethyl[2-[4-[[1-[(4-fluorophenyl)methyl]-1H-benzimidazol-2-yl]amino]-1-piperidinyl]ethyl](2-thiazolyl)carbamate]",0.31
17,"CNC(=S)N(CCN1CCC(Nc2nc3ccccc3n2Cc2ccc(F)cc2)CC1)c1nccs1 [Compound 104, N-[2-[4-[[1-[(4-fluorophenyl)methyl]-1H-benzimidazol-2-yl]amino]-1-piperidinyl]ethyl]-N'-methyl-N-(2-thiazolyl)thiourea]",0.16
18,Fc1ccc(Cn2c(NC3CCN(CCNc4nccn4-c4ncccn4)CC3)nc3ccccc32)cc1 [Compound 105],0.16
19,"CC(c1ccc(Cl)cc1)n1ccnc1NCCN1CCC(Nc2nc3ccccc3n2Cc2ccc(F)cc2)CC1 (stereo not drawn) [Compound 106, N-[1-[2-[[1-[1-(4-chlorophenyl)ethyl]-1H-imidazol-2-yl]amino]ethyl]-4-piperidinyl]-1-[(4-fluorophenyl)methyl]-1H-benzimidazol-2-amine cyclohexanesulfamate(1:3).dihydrate]",0.63

# Same assay, conditions: dose protecting 50% of animals; subcutaneous or oral, 1 h before compound 48/80 0.5 mg/kg i.v.; survival after 4 h; 0.5 mg/kg, 240 min
row,Compound,compound 48/80 lethality test in rats-ED50 [mg/kg body weight]
1,Fc1ccc(Cn2c(NC3CCN(CCNc4nccs4)CC3)nc3ccccc32)cc1 [Compound 16],0.08

# System: effects of serotonin in the gastric lesion test
# Assay: Antagonistic activity on the effects of serotonin in the gastric lesion test (lesions induced by compound 48/80)
# Assay type: in vivo, rat (male, Wistar inbred strain)
# Conditions: Rattus norvegicus, read-out: gastric lesion test ED50
# Description: The compounds of formula (I) and the pharmaceutically acceptable acid addition salts thereof are also potent serotonin-antagonists. The potency of the subject compounds as serotonin-antagonists is clearly evidenced by the results obtained in the following tests wherein the antagonistic activity of the subject compounds on the effect of serotonin is examined.
# Antagonistic activity on the effects of serotonin in the gastric lesion test.
# The shock, followed by dead, can be avoided if the rats are pretreated with a classical H 1 antagonist.
# Male rats of a Wistar inbred strain, weighing 220-250 g, were starved overnight, water being available ad libitum. The test compounds were administered orally as a solution or as a suspension in aqueous medium. A control rat and a "blank" rat received the test compound. One hour later 5-[4-(diphenylmethyl)-1-piperazinylmethyl]-1-methyl-1H-benzimidazole-2-methanol was administered subcutaneously to all rats at the dose of 2.5 mg/kg.
# Four hours after the intravenous injection of compound 48/80, the rats were decapitated and the stomachs were removed. Subsequently the stomachs were inspected for distension and contents (blood, fluid, food) and thoroughly rinsed. The macroscopic lesions were scored from 0 to +++, 0 corresponding to the complete absence of visible lesions and the highest score corresponding to reddish rough patches covering more than half the glandular area.
row,Compound,ED50 [mg/kg]
1,Nc1nnc(NCCN2CCC(Nc3nc4ccccc4n3Cc3ccc(F)cc3)CC2)s1 [Compound 18],0.04

# Same assay, conditions: Rattus norvegicus; read-out: gastric lesion test ED50
row,Compound,ED50 [mg/kg]
1,"Cc1nc[nH]c1CN1CCC(Nc2nc3ccccc3n2Cc2ccc(F)cc2)CC1 [Compound 7, 1-(4-fluorophenylmethyl)-N-[1-[(4-methyl-1H-imidazol-5-yl)methyl]-4-piperidinyl]-1H-benzimidazol-2-amine]",0.31
2,"Cc1nnc(NCCN2CCC(Nc3nc4ccccc4n3Cc3ccc(F)cc3)CC2)s1 [Compound 15, 1-[(4-fluorophenyl)methyl]-N-[1-[2-[(5-methyl-1,3,4-thiadiazol-2-yl)amino]ethyl]-4-piperidinyl]-1H-benzimidazol-2-amine]",0.31
3,Fc1ccc(Cn2c(NC3CCN(CCNc4nccs4)CC3)nc3cccnc32)cc1 [Compound 17],0.16
4,Fc1ccc(Cn2c(NC3CCN(CCCCCNc4nccs4)CC3)nc3ccccc32)cc1 [Compound 21],0.31
5,Clc1ccc(Cn2c(NC3CCN(CCNc4nccs4)CC3)nc3ccccc32)cc1 [Compound 25],0.63
6,c1csc(Cn2c(NC3CCN(CCNc4nccs4)CC3)nc3ccccc32)c1 [Compound 28],0.02
7,Cc1ccccc1Cn1c(NC2CCN(CCNc3nccs3)CC2)nc2ccccc21 [Compound 29],0.63
